These results are taken from ChEMBL document CHEMBL3745696, “Synthesis and cytotoxic activity of novel hexahydropyrrolo[2,3-b]indole imidazolium salts” (Bioorg Med Chem Lett, 2016).

Common to all, as to format: functional, cell-based
Assay [1] in a line: Cytotoxicity against human HL60 cells by MTT assay. The note with it: HL-60.
In another assay the test system is A549. Put plainly: Cytotoxicity against human A549 cells by MTT assay. A general note: Tetrazolium assays rely on reduction of a dye to a coloured formazan, in cell work by metabolically active cells.
For the next assay, the system named is MCF7. Nature of the assay: Cytotoxicity against human MCF7 cells by MTT assay.
The next assay relates to SW480. Put plainly: Cytotoxicity against human SW480 cells by MTT assay.
The nature of assay [2]: Cytotoxicity against human SMMC7721 cells by MTT assay. The note with it: SMMC-7721.

In general, IC50 refers to the concentration needed to halve the response being measured. A higher IC50 goes with lower potency. Consider `COc1ccc(C(=O)C[n+]2c(C)n(CC(=O)N3CCC4(C)c5ccccc5N(Cc5ccccc5)C34)c3ccccc32)cc1` (stereo not given), for which the IC50 was determined as 4.18 µM in assay [1]; 12.5 µM in the assay with A549; 6.99 µM in the assay with MCF7; 8.38 µM in the assay on SW480; 8.83 µM in assay [2].
For `Cc1n(CC(=O)N2CCC3(C)c4ccccc4N(C)C23)cc[n+]1CC(=O)c1ccccc1` (stereo not given), in that order: more than 20 µM, more than 20 µM, more than 20 µM, more than 20 µM and more than 20 µM.
For `CN1c2ccccc2C2(C)CCN(C(=O)Cn3c[n+](CC(=O)c4ccccc4)c4ccccc43)C12` (stereo not given), in that order: more than 20 µM, more than 20 µM, more than 20 µM, more than 20 µM and more than 20 µM.
As for `COc1ccc(C(=O)C[n+]2cn(CC(=O)N3CCC4(C)c5ccccc5N(Cc5ccccc5)C34)c3cc(C)c(C)cc32)cc1` (stereo not given), the IC50 was determined as 1.64 µM in assay [1]; 7.4 µM with A549; 2.35 µM with MCF7; 1.5 µM in the assay on SW480; 5.07 µM in assay [2].
The like results for `CN1c2ccccc2C2(C)CCN(C(=O)Cn3cc[n+](CC(=O)c4ccccc4)c3)C12` (stereo not given) were, in that order, more than 20 µM, more than 20 µM, more than 20 µM, more than 20 µM and more than 20 µM.
For `CN1c2ccccc2C2(C)CCN(C(=O)Cn3c[n+](CC(=O)c4ccc5ccccc5c4)c4ccccc43)C12` (stereo not given), in that order: 5.98 µM, more than 20 µM, 11 µM, 8.56 µM and more than 20 µM.
For `COc1ccc(C(=O)C[n+]2ccn(CC(=O)N3CCC4(C)c5ccccc5N(C)C34)c2)cc1` (stereo not given), in that order: more than 20 µM, more than 20 µM, more than 20 µM, more than 20 µM and more than 20 µM.
Regarding `Cc1n(CC(=O)N2CCC3(C)c4ccccc4N(C)C23)cc[n+]1CC(=O)c1ccc(Br)cc1` (stereo not given), the IC50 (in assay [1]; in the assay on A549; in the assay with MCF7; with SW480; in assay [2]) was more than 20 µM each time.
In the case of `CN1c2ccccc2C2(C)CCN(C(=O)Cn3cc[n+](CC(=O)c4ccc(Br)cc4)c3)C12` (stereo not given), the half-maximal inhibitory concentration (IC50) (in assay [1]; with A549; in the assay on MCF7; with SW480; in assay [2]) was more than 20 µM throughout.
On to `COc1ccc(C(=O)C[n+]2cn(CC(=O)N3CCC4(C)c5ccccc5N(C)C34)c3ccccc32)cc1` (stereo not given), for which the IC50 (in assay [1]; with A549; in the assay on MCF7; in the assay on SW480; in assay [2]) was more than 20 µM in each case.
`CN1c2ccccc2C2(C)CCN(C(=O)Cn3c[n+](CC(=O)c4ccc(Br)cc4)c4ccccc43)C12` (stereo not given): the concentration for half-maximal inhibition (IC50) (in assay [1]; in the assay on A549; in the assay on MCF7; with SW480; in assay [2]) was more than 20 µM throughout.
On to `CC12CCN(C(=O)Cn3c[n+](Cc4ccc(Br)cc4)c4ccccc43)C1N(Cc1ccccc1)c1ccccc12` (stereo not given), for which the IC50 stood at 1.42 µM in assay [1]; 7.59 µM in the assay on A549; 3.87 µM with MCF7; 7.43 µM in the assay with SW480; 7.53 µM in assay [2].
The like results for `CN1c2ccccc2C2(C)CCN(C(=O)Cn3cc[n+](CC(=O)c4ccc5ccccc5c4)c3)C12` (stereo not given) were, in that order, more than 20 µM, more than 20 µM, more than 20 µM, more than 20 µM and more than 20 µM.
In the case of `Cc1n(CC(=O)N2CCC3(C)c4ccccc4N(Cc4ccccc4)C23)c2ccccc2[n+]1CC(=O)c1ccccc1` (stereo not given), the IC50 in assay [1] stood at 4.64 µM; with A549, 14.7 µM; with MCF7 it was 6.35 µM; in the assay on SW480, 8.31 µM; in assay [2], 9.28 µM.
For `Cc1n(CC(=O)N2CCC3(C)c4ccccc4N(C)C23)c2ccccc2[n+]1CC(=O)c1ccccc1` (stereo not given), in that order: more than 20 µM, more than 20 µM, more than 20 µM, more than 20 µM and more than 20 µM.
The like results for `CN1c2ccccc2C2(C)CCN(C(=O)Cn3c[n+](Cc4ccccc4Br)c4ccccc43)C12` (stereo not given) were, in that order, 5.07 µM, more than 20 µM, 14 µM, more than 20 µM and more than 20 µM.
As to `COc1ccc(C(=O)C[n+]2ccn(CC(=O)N3CCC4(C)c5ccccc5N(C)C34)c2C)cc1` (stereo not given), the IC50 (in assay [1]; with A549; with MCF7; in the assay on SW480; in assay [2]) was more than 20 µM in each case.
As to `Cc1cc2c(cc1C)[n+](CC(=O)c1ccccc1)cn2CC(=O)N1CCC2(C)c3ccccc3N(Cc3ccccc3)C12` (stereo not given), the IC50 in assay [1] came out at 1.47 µM; in the assay with A549 it was 6.54 µM; with MCF7 it was 3.51 µM; in the assay on SW480, 7.09 µM; in assay [2], 5.78 µM.
For `Cc1cc2c(cc1C)[n+](Cc1ccc(Br)cc1)cn2CC(=O)N1CCC2(C)c3ccccc3N(Cc3ccccc3)C12` (stereo not given), in that order: 1.29 µM, 6.37 µM, 1.72 µM, 1.41 µM and 3.59 µM.
Take `Cc1cc2c(cc1C)[n+](Cc1ccc3ccccc3c1)cn2CC(=O)N1CCC2(C)c3ccccc3N(Cc3ccccc3)C12` (stereo not given): the IC50 in assay [1] was determined as 1.21 µM; in the assay with A549, 4.8 µM; in the assay on MCF7, 1.68 µM; with SW480, 1.76 µM; in assay [2] it was 2.27 µM.
Consider `Cc1ccc(C[n+]2cn(CC(=O)N3CCC4(C)c5ccccc5N(Cc5ccccc5)C34)c3cc(C)c(C)cc32)cc1` (stereo not given), for which the IC50 in assay [1] was 1.23 µM; with A549, 4.84 µM; in the assay with MCF7, 1.86 µM; in the assay with SW480, 1.77 µM; in assay [2], 1.74 µM.
The like results for `Cc1n(CC(=O)N2CCC3(C)c4ccccc4N(Cc4ccccc4)C23)c2ccccc2[n+]1CC(=O)c1ccc(Br)cc1` (stereo not given) were, in that order, 4.25 µM, 9.87 µM, 7.37 µM, 8.86 µM and 5.99 µM.
For `Cc1n(CC(=O)N2CCC3(C)c4ccccc4N(C)C23)cc[n+]1Cc1ccc(Br)cc1` (stereo not given), the IC50 (in assay [1]; in the assay with A549; in the assay with MCF7; in the assay with SW480; in assay [2]) was more than 20 µM in each case.
For the molecule `CC12CCN(C(=O)Cn3c[n+](Cc4ccccc4Br)c4ccccc43)C1N(Cc1ccccc1)c1ccccc12` (stereo not given), the IC50 is 1.21 µM in assay [1]; 6.76 µM with A549; 2.23 µM in the assay on MCF7; 6.35 µM in the assay on SW480; 4.69 µM in assay [2].
In the case of `Cc1ccc(C[n+]2c(C)n(CC(=O)N3CCC4(C)c5ccccc5N(Cc5ccccc5)C34)c3ccccc32)cc1` (stereo not given), the IC50 was 1.25 µM in assay [1]; 6.63 µM in the assay on A549; 1.98 µM with MCF7; 1.62 µM in the assay with SW480; 2.97 µM in assay [2].
The like results for `Cc1n(CC(=O)N2CCC3(C)c4ccccc4N(C)C23)cc[n+]1CC(=O)c1ccc2ccccc2c1` (stereo not given) were, in that order, more than 20 µM, more than 20 µM, more than 20 µM, more than 20 µM and more than 20 µM.
The like results for `CN1c2ccccc2C2(C)CCN(C(=O)Cn3c[n+](Cc4ccc(Br)cc4)c4ccccc43)C12` (stereo not given) were, in that order, 6.96 µM, more than 20 µM, 8.93 µM, more than 20 µM and more than 20 µM.
For `CN1c2ccccc2C2(C)CCN(C(=O)Cn3c[n+](Cc4ccc5ccccc5c4)c4ccccc43)C12` (stereo not given), in that order: 2.8 µM, 14.1 µM, 6.86 µM, 7.95 µM and 7.45 µM.
As for `Cc1n(CC(=O)N2CCC3(C)c4ccccc4N(Cc4ccccc4)C23)c2ccccc2[n+]1Cc1ccccc1Br` (stereo not given), the IC50 in assay [1] worked out at 1.33 µM; in the assay with A549, 7.34 µM; in the assay with MCF7, 2.5 µM; in the assay with SW480 it was 4.62 µM; in assay [2], 2.27 µM.
The like results for `Cc1ccc(C[n+]2cn(CC(=O)N3CCC4(C)c5ccccc5N(C)C34)c3ccccc32)cc1` (stereo not given) were, in that order, 5.13 µM, more than 20 µM, 9.47 µM, more than 20 µM and more than 20 µM.
The like results for `Cc1cc2c(cc1C)[n+](CC(=O)c1ccc(Br)cc1)cn2CC(=O)N1CCC2(C)c3ccccc3N(Cc3ccccc3)C12` (stereo not given) were, in that order, 1.55 µM, 8.01 µM, 2.78 µM, 1.68 µM and 6.22 µM.
For `Cc1ccc(C[n+]2ccn(CC(=O)N3CCC4(C)c5ccccc5N(C)C34)c2C)cc1` (stereo not given), in that order: more than 20 µM, more than 20 µM, more than 20 µM, more than 20 µM and more than 20 µM.
On to `Cc1n(CC(=O)N2CCC3(C)c4ccccc4N(Cc4ccccc4)C23)c2ccccc2[n+]1Cc1ccc(Br)cc1` (stereo not given), for which the half-inhibitory concentration (IC50) was 1.35 µM in assay [1]; 7.91 µM in the assay with A549; 2.4 µM in the assay with MCF7; 6.11 µM in the assay with SW480; 5.1 µM in assay [2].
The like results for `Cc1ccc(C[n+]2cn(CC(=O)N3CCC4(C)c5ccccc5N(Cc5ccccc5)C34)c3ccccc32)cc1` (stereo not given) were, in that order, 1.2 µM, 6.23 µM, 2.72 µM, 6.57 µM and 4.98 µM.
The like results for `CN1c2ccccc2C2(C)CCN(C(=O)Cn3cc[n+](Cc4ccc(Br)cc4)c3)C12` (stereo not given) were, in that order, more than 20 µM, more than 20 µM, more than 20 µM, more than 20 µM and more than 20 µM.
